Some results are limits rather than exact numbers.

This passage reports CC50, IC50 and Activity results from ChEMBL document CHEMBL2062517, “Design, synthesis, and antiviral activity of entry inhibitors that target the CD4-binding site of HIV-1” (J Med Chem, 2012).

What all share (format): cell-based
The nature of series [1]: Cytotoxicity against human TZM-b1 cells after 3 days by XTT assay. Particulars: TZM-b1 cells.
Series [2] is described as follows: Inhibition of X4-tropic HIV1 3B gp120-mediated entry into human MT2 cells assessed as Inhibition of p24 production incubated overnight followed by compound wash-out measured after 4 days post-infection by multi-cycle neutralization assay. Particulars: Human immunodeficiency virus 1, 3B, MT2, 96 h.
The test system of series [3] is MT2. The series is described as follows: Cytotoxicity against human MT2 cells at >41 uM after 4 days by XTT assay. Particulars: mt2, 96 h. A general note: Formazan colour is commonly taken as a measure of viable cells.
In series [4] the test system is MT2. Put plainly: Cytotoxicity against human MT2 cells after 4 days by XTT assay. The settings on record: mt2, 96 h.
Series [5] can be described thus: Inhibition of X4-tropic HIV1 HXB2 gp120-mediated entry into human TZM-b1 cells expressing CD4,CXCR4,CCR5,luciferase and beta-galactosidase after 3 days by single cycle neutralization assay. Particulars: Human immunodeficiency virus 1, HXB2, TZM-b1, 72 h.

`Cc1nc(C(NC(=O)C(=O)Nc2ccc(Cl)c(F)c2)C2CCCCN2)sc1CCO` (mixture of isomers): in series [1], the midpoint of cytotoxicity, the CC50 at 72 h, lay at 61 µM. Also, the IC50 in series [2] turned out to be 3.5 µM; in series [5] it was 1.98 µM. In addition, the Activity with MT2 [3] came to 10%. Moreover, in the series with MT2 [4], the CC50 is above 41 µM.

Usually CC50 stands for the concentration at which the toxic effect on the cells reaches its halfway point. The IC50 is the concentration that inhibits the measured activity by half.
